Data published in the NIST ThermoML archive (doi:10.1021/je050052+).
Numbers after ± are expanded uncertainties.

Test: excess molar enthalpy (molar enthalpy of mixing); xn = mol fraction of the nth substance listed
Settings: Liquid, Flow calorimetry

`COC(=O)OC` [dimethyl carbonate] + CO showed an excess molar enthalpy (298.15 K, 1000 kPa, x2 = 0.25) of 1.142 ± 0.0096 kJ/mol, an excess molar enthalpy (298.15 K, 1000 kPa, x2 = 0.3) of 1.227 ± 0.01 kJ/mol and an excess molar enthalpy (298.15 K, 1000 kPa, x2 = 0.35) of 1.286 ± 0.011 kJ/mol. The excess molar enthalpy (298.15 K, 1000 kPa, x2 = 0.4) was 1.318 ± 0.011 kJ/mol, the excess molar enthalpy (298.15 K, 1000 kPa, x2 = 0.45) was 1.323 ± 0.011 kJ/mol and the excess molar enthalpy (298.15 K, 1000 kPa, x2 = 0.5) was 1.31 ± 0.011 kJ/mol. It also gave an excess molar enthalpy (298.15 K, 1000 kPa, x2 = 0.55) of 1.269 ± 0.011 kJ/mol, an excess molar enthalpy (298.15 K, 1000 kPa, x2 = 0.6) of 1.214 ± 0.01 kJ/mol and an excess molar enthalpy (298.15 K, 1000 kPa, x2 = 0.65) of 1.144 ± 0.0096 kJ/mol. The excess molar enthalpy (298.15 K, 1000 kPa, x2 = 0.7) was 1.049 ± 0.0089 kJ/mol, the excess molar enthalpy (298.15 K, 1000 kPa, x2 = 0.75) was 0.9327 ± 0.008 kJ/mol and the excess molar enthalpy (298.15 K, 1000 kPa, x2 = 0.8) was 0.8077 ± 0.007 kJ/mol. It also gave an excess molar enthalpy (313.15 K, 100 kPa, x2 = 0.048) of 0.313 ± 0.0032 kJ/mol, an excess molar enthalpy (313.15 K, 100 kPa, x2 = 0.1) of 0.644 ± 0.0058 kJ/mol and an excess molar enthalpy (313.15 K, 100 kPa, x2 = 0.1492) of 0.8864 ± 0.0076 kJ/mol. For the same compound, the excess molar enthalpy (313.15 K, 100 kPa, x2 = 0.2014) was 1.097 ± 0.0093 kJ/mol, the excess molar enthalpy (313.15 K, 100 kPa, x2 = 0.2506) was 1.245 ± 0.01 kJ/mol and the excess molar enthalpy (313.15 K, 100 kPa, x2 = 0.302) was 1.355 ± 0.011 kJ/mol. It also gave an excess molar enthalpy (313.15 K, 100 kPa, x2 = 0.3503) of 1.427 ± 0.012 kJ/mol, an excess molar enthalpy (313.15 K, 100 kPa, x2 = 0.4001) of 1.467 ± 0.012 kJ/mol and an excess molar enthalpy (313.15 K, 100 kPa, x2 = 0.451) of 1.479 ± 0.012 kJ/mol. The excess molar enthalpy (313.15 K, 100 kPa, x2 = 0.4985) was 1.453 ± 0.012 kJ/mol, the excess molar enthalpy (313.15 K, 100 kPa, x2 = 0.5501) was 1.427 ± 0.012 kJ/mol and the excess molar enthalpy (313.15 K, 100 kPa, x2 = 0.6014) was 1.362 ± 0.011 kJ/mol. The excess molar enthalpy (313.15 K, 100 kPa, x2 = 0.6489) was 1.286 ± 0.011 kJ/mol, the excess molar enthalpy (313.15 K, 100 kPa, x2 = 0.6987) was 1.188 ± 0.01 kJ/mol and the excess molar enthalpy (313.15 K, 100 kPa, x2 = 0.7499) was 1.063 ± 0.009 kJ/mol. It also gave an excess molar enthalpy (313.15 K, 100 kPa, x2 = 0.7992) of 0.9046 ± 0.0078 kJ/mol, an excess molar enthalpy (313.15 K, 100 kPa, x2 = 0.851) of 0.7107 ± 0.0063 kJ/mol and an excess molar enthalpy (313.15 K, 100 kPa, x2 = 0.95) of 0.235 ± 0.0026 kJ/mol. It also gave an excess molar enthalpy (313.15 K, 1000 kPa, x2 = 0.0477) of 0.3558 ± 0.0035 kJ/mol, an excess molar enthalpy (313.15 K, 1000 kPa, x2 = 0.0994) of 0.6612 ± 0.0059 kJ/mol and an excess molar enthalpy (313.15 K, 1000 kPa, x2 = 0.1484) of 0.9015 ± 0.0078 kJ/mol. For the same compound, the excess molar enthalpy (313.15 K, 1000 kPa, x2 = 0.2003) was 1.103 ± 0.0093 kJ/mol, the excess molar enthalpy (313.15 K, 1000 kPa, x2 = 0.2493) was 1.242 ± 0.01 kJ/mol and the excess molar enthalpy (313.15 K, 1000 kPa, x2 = 0.3006) was 1.351 ± 0.011 kJ/mol. It also gave an excess molar enthalpy (313.15 K, 1000 kPa, x2 = 0.3487) of 1.424 ± 0.012 kJ/mol, an excess molar enthalpy (313.15 K, 1000 kPa, x2 = 0.3985) of 1.472 ± 0.012 kJ/mol and an excess molar enthalpy (313.15 K, 1000 kPa, x2 = 0.4493) of 1.484 ± 0.012 kJ/mol. It also gave an excess molar enthalpy (313.15 K, 1000 kPa, x2 = 0.5006) of 1.463 ± 0.012 kJ/mol, an excess molar enthalpy (313.15 K, 1000 kPa, x2 = 0.5485) of 1.424 ± 0.012 kJ/mol and an excess molar enthalpy (313.15 K, 1000 kPa, x2 = 0.5998) of 1.358 ± 0.011 kJ/mol. For the same compound, the excess molar enthalpy (313.15 K, 1000 kPa, x2 = 0.6504) was 1.277 ± 0.011 kJ/mol, the excess molar enthalpy (313.15 K, 1000 kPa, x2 = 0.7001) was 1.178 ± 0.0099 kJ/mol and the excess molar enthalpy (313.15 K, 1000 kPa, x2 = 0.7512) was 1.05 ± 0.0089 kJ/mol. For the same compound, the excess molar enthalpy (313.15 K, 1000 kPa, x2 = 0.8005) was 0.8992 ± 0.0077 kJ/mol, the excess molar enthalpy (313.15 K, 1000 kPa, x2 = 0.8501) was 0.7074 ± 0.0063 kJ/mol and the excess molar enthalpy (313.15 K, 1000 kPa, x2 = 0.9497) was 0.223 ± 0.0025 kJ/mol. For the same compound, the excess molar enthalpy (313.15 K, 10000 kPa, x2 = 0.0477) was 0.3689 ± 0.0036 kJ/mol, the excess molar enthalpy (313.15 K, 10000 kPa, x2 = 0.0994) was 0.6783 ± 0.006 kJ/mol and the excess molar enthalpy (313.15 K, 10000 kPa, x2 = 0.1484) was 0.9156 ± 0.0079 kJ/mol. It also gave an excess molar enthalpy (313.15 K, 10000 kPa, x2 = 0.2003) of 1.113 ± 0.0094 kJ/mol, an excess molar enthalpy (313.15 K, 10000 kPa, x2 = 0.2493) of 1.251 ± 0.01 kJ/mol and an excess molar enthalpy (313.15 K, 10000 kPa, x2 = 0.3006) of 1.36 ± 0.011 kJ/mol. The excess molar enthalpy (313.15 K, 10000 kPa, x2 = 0.3487) was 1.429 ± 0.012 kJ/mol, the excess molar enthalpy (313.15 K, 10000 kPa, x2 = 0.3985) was 1.469 ± 0.012 kJ/mol and the excess molar enthalpy (313.15 K, 10000 kPa, x2 = 0.4493) was 1.48 ± 0.012 kJ/mol. The excess molar enthalpy (313.15 K, 10000 kPa, x2 = 0.5006) was 1.468 ± 0.012 kJ/mol, the excess molar enthalpy (313.15 K, 10000 kPa, x2 = 0.5485) was 1.432 ± 0.012 kJ/mol and the excess molar enthalpy (313.15 K, 10000 kPa, x2 = 0.5998) was 1.375 ± 0.011 kJ/mol. For the same compound, the excess molar enthalpy (313.15 K, 10000 kPa, x2 = 0.6504) was 1.292 ± 0.011 kJ/mol, the excess molar enthalpy (313.15 K, 10000 kPa, x2 = 0.7001) was 1.189 ± 0.01 kJ/mol and the excess molar enthalpy (313.15 K, 10000 kPa, x2 = 0.7512) was 1.05 ± 0.0089 kJ/mol. The excess molar enthalpy (313.15 K, 10000 kPa, x2 = 0.8005) was 0.9028 ± 0.0078 kJ/mol, the excess molar enthalpy (313.15 K, 10000 kPa, x2 = 0.8501) was 0.7249 ± 0.0064 kJ/mol and the excess molar enthalpy (313.15 K, 10000 kPa, x2 = 0.9497) was 0.235 ± 0.0026 kJ/mol. The excess molar enthalpy (328.15 K, 1000 kPa, x2 = 0.05) was 0.3837 ± 0.0037 kJ/mol, the excess molar enthalpy (328.15 K, 1000 kPa, x2 = 0.1) was 0.7249 ± 0.0064 kJ/mol and the excess molar enthalpy (328.15 K, 1000 kPa, x2 = 0.15) was 0.9828 ± 0.0084 kJ/mol. For the same compound, the excess molar enthalpy (328.15 K, 1000 kPa, x2 = 0.2) was 1.2 ± 0.01 kJ/mol, the excess molar enthalpy (328.15 K, 1000 kPa, x2 = 0.25) was 1.365 ± 0.011 kJ/mol and the excess molar enthalpy (328.15 K, 1000 kPa, x2 = 0.3) was 1.488 ± 0.012 kJ/mol. The excess molar enthalpy (328.15 K, 1000 kPa, x2 = 0.35) was 1.569 ± 0.013 kJ/mol, the excess molar enthalpy (328.15 K, 1000 kPa, x2 = 0.4) was 1.625 ± 0.013 kJ/mol and the excess molar enthalpy (328.15 K, 1000 kPa, x2 = 0.45) was 1.646 ± 0.014 kJ/mol. It also gave an excess molar enthalpy (328.15 K, 1000 kPa, x2 = 0.5) of 1.629 ± 0.013 kJ/mol, an excess molar enthalpy (328.15 K, 1000 kPa, x2 = 0.55) of 1.588 ± 0.013 kJ/mol and an excess molar enthalpy (328.15 K, 1000 kPa, x2 = 0.6) of 1.522 ± 0.013 kJ/mol. The excess molar enthalpy (328.15 K, 1000 kPa, x2 = 0.65) was 1.428 ± 0.012 kJ/mol, the excess molar enthalpy (328.15 K, 1000 kPa, x2 = 0.7) was 1.313 ± 0.011 kJ/mol and the excess molar enthalpy (328.15 K, 1000 kPa, x2 = 0.75) was 1.167 ± 0.0098 kJ/mol. The excess molar enthalpy (328.15 K, 1000 kPa, x2 = 0.8) was 0.9972 ± 0.0085 kJ/mol, the excess molar enthalpy (328.15 K, 1000 kPa, x2 = 0.8509) was 0.7891 ± 0.0069 kJ/mol and the excess molar enthalpy (328.15 K, 1000 kPa, x2 = 0.95) was 0.262 ± 0.0028 kJ/mol.
